Laboratory results published in patent US7902401B2, “Fluorinated compounds” (priority 2006, dated 2011).
Each block holds one compound with its values, some of them ahead of it.

Tests used:
[1] = test system: CD-1 mice; experiment: Maximal Electroshock Assay (Mouse); format: in vivo; details: mouse MES, 1 h and 4 h pretreatment timepoints
Procedure: Male, CD-1 mice (20-30 g body weight) were orally pretreated with test compound or vehicle control, and either at 1 h or 4 h post dose a maximal electroshock (45 mA amplitude, 0.2 s duration, 60 Hz) was applied by corneal electrodes. […] Animals received only one electroshock and so separate animals were used for the 1 h and 4 h timepoints. All drugs were administered in multiple doses.

[2] = test system: Sprague-Dawley rats; experiment: Maximal Electroshock Assay (Rat); format: in vivo; details: rat MES, 0.5 h and 4 h pretreatment timepoints
Procedure: Male, Sprague-Dawley rats (approx. 100 g body weight) were prescreened for tonic seizure susceptibility prior to drug testing. […] Protection was defined by the absence of a tonic extensor seizure in the animal within 20 s of application of the electrical stimulus, which typically occurred in all vehicle pretreated animals. Animals received only one electroshock on the drug test day and so separate animals were used for the 0.5 h and 4 h timepoints. All drugs were administered in multiple doses.

[3] = test system: SNI rats; experiment: Spared nerve injury (SNI) model, mechanical allodynia; format: in vivo, rat; details: 30 mg/kg, i.p.
Procedure: The compounds were tested for their efficacy in reducing mechanical allodynia and cold allodynia in the spared nerve injury (SNI) model of chronic neuropathic pain. In this model, the left sciatic nerve of the rat is exposed under anesthesia. Two of the branches of the sciatic nerve viz. the common peroneal and tibial nerve are ligated and sectioned. The third branch (sural nerve) is left intact. The animals were allowed a post-operative recovery period of 7 days before they were subjected to any test.
The presence of mechanical allodynia was assessed using the Dynamic Plantar Aesthesiometer (Ugo Basile, Italy) which is a modified version of the Von Frey Hair test. In this, a test filament is positioned below the animal's hind paw and the unit is activated which causes the filament to move up and touch the plantar surface of the hind paw. Increasing force is applied to the paw via the filament. […] The cut-off force is set at 50 g. The tests were done on both the non-injured (control) and the injured (SNI) paw.
Testing of compounds was done after 21 days post-operatively. After initial basal readings were taken, the test compound or the vehicle was administered (10 ml/kg) either intraperitoneally (30 mg/kg) or orally (60 mg/kg). The readings were taken again 30, 60 and 180 min after the compound/vehicle administration.

- melting point: 162.7 °C
SMILES: CC(=O)N[C@H](COC(F)F)C(=O)NCc1ccc(F)cc1

SMILES: CC(=O)NC(COC(F)F)C(=O)NCc1ccc(F)cc1 (centres unmarked) [Compound 4]
- duration of action [1]: longer than Lacosamide
- duration of action [2]: longer than Lacosamide

SMILES: CC(=O)N[C@H](COC(F)F)C(=O)NCc1ccc(Cl)cc1 [Compound 20, (2R)-2-(acetylamino)-N-(4-chlorobenzyl)-3-(difluoromethoxy)propanamide]
- duration of action [1]: longer than Lacosamide
- duration of action [2]: longer than Lacosamide
- withdrawal threshold, Post Admin 60 min [3]: 25.3 ± 3.2 g

SMILES: CC(=O)NC(COC(F)F)C(=O)NCc1ccccc1 (centres unmarked) [Compound 3, 2-(Acetylamino)-N-benzyl-3-(difluoro-methoxy)propanamide]
- duration of action [1]: longer than Lacosamide
- duration of action [2]: longer than Lacosamide
